Here are results for five compounds from patent US20120015396A1, “COMPOSITIONS AND METHODS FOR MODULATING THE ACID-SENSING ION CHANNEL (ASIC)” (Department of Veteran's Affair, United States Technology …, priority 2002, published 2012).

In assay [1] the test system is Schaffer collateral-CA1 synapses in hippocampal slices. Description: LTP induced by HFS in hippocampal slices. The format is cell-based, mice. Conditions: 10 μM PMA. On the procedure: (§1) Transverse hippocampal slices (350-400 μm) were prepared from wild type (+/+) and ASIC knock out (−/−) littermates at 2-4 months of age. For the LTP studies, the applicant was blinded to genotype. The slices were sectioned in ice-cold artificial cerebrospinal fluid (ACSF) containing (in mM) 119 NaCl, 2.5 KCl, 2.5 CaCl2, 1.0 NaH2PO4, 1.3 MgSO4, 26.2 NaHCO3, 11 glucose, pH 7.4, bubbled with 95% O2/5% CO2, and then were incubated in identical solution at 31° C. for 2-5 hours before recording.
Standard extracellular field potential recording techniques were used. Experiments were performed in a submerged chamber, heated to 31±0.5° C. Field postsynaptic excitatory potentials (EPSPs) were evoked in CA1 stratum radiatum by stimulation of Schaffer collaterals with a bipolar stainless steel electrode that was put at the border of CA3-CA1 subfields and recorded with 3M NaCl-filled glass pipettes (<5 MSΩ) using a biological amplifier (WPI, Iso-DAME, FL., USA). A 100 μs test stimulation was delivered every 30 s by a stimulus isolation unit (Grass, SD9, Mass., USA). Input-output curves were obtained by plotting the stimulus voltage against the amplitude of EPSPs. […] Stimulus intensity was adjusted to evoke half-maximal responses. LTP was induced by a high-frequency stimulation (HFS, 100 Hz, 1 s, at test intensity). Paired-pulse facilitation (PPF) was observed by applying paired pulses with different intervals (20, 50 ms). LTP was measured by normalizing the EPSP slopes after HFS to the mean slope of the baseline EPSP before HFS. Data were digitized (10 kHz), filtered at 1 kHz (eight-pole Bessel Filter), monitored on-line, and stored on hard disk using PULSE 8.41 (HEKA, Lambrecht, Germany). Off-line analysis was performed by PATCHMACHINE 1.0 (Hoshi Laboratory, Philadelphia, Pa., USA) and IGORPRO 4.0 (WaveMetrics, Lake Oswego, Oreg., USA). Unless otherwise noted, two-sample t-test was used to calculate statistical

The target of the next assay is T1, ASIC channels (Homo sapiens, UniProt P78348).
T1 sequence (P78348 1-528): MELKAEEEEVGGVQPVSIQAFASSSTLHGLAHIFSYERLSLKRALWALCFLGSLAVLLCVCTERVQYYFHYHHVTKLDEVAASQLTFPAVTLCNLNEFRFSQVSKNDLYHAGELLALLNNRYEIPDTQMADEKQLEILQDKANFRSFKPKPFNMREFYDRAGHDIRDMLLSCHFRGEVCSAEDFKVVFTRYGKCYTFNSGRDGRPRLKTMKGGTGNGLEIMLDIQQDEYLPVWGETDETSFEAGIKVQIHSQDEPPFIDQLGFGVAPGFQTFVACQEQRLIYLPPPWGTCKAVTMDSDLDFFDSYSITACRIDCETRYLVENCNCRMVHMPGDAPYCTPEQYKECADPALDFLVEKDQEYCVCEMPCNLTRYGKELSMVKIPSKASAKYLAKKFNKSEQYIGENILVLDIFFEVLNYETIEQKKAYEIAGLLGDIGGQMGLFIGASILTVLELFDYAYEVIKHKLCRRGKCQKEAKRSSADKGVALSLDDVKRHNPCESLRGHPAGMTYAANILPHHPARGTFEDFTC
Conditions: cited from earlier work.

The test system of another assay is cortical neurons. The conditions noted are these: primary cultures of cortical neurons; cited from earlier work.
Assay [2] has as its system Schaffer collateral-CA1 synapses in hippocampal slices. Description: Baseline field EPSP recording in hippocampal slices. Conditions: KA 5 mM; slices from +/+ and −/− mice. The format is cell-based. The procedure:
as §1
Standard extracellular field potential recording techniques were used. Experiments were performed in a submerged chamber, heated to 31±0.5° C. Field postsynaptic excitatory potentials (EPSPs) were evoked in CA1 stratum radiatum by stimulation of Schaffer collaterals with a bipolar stainless steel electrode that was put at the border of CA3-CA1 subfields and recorded with 3M NaCl-filled glass pipettes (<5 MSΩ) using a biological amplifier (WPI, Iso-DAME, FL., USA). A 100 μs test stimulation was delivered every 30 s by a stimulus isolation unit (Grass, SD9, Mass., USA). […] LTP was measured by normalizing the EPSP slopes after HFS to the mean slope of the baseline EPSP before HFS. Data were digitized (10 kHz), filtered at 1 kHz (eight-pole Bessel Filter), monitored on-line, and stored on hard disk using PULSE 8.41 (HEKA, Lambrecht, Germany). […]

As for `CCCCCCCCCCCCCC(=O)O[C@@H]1[C@@H](C)[C@@]2(O)[C@@H](C=C(CO)C[C@]3(O)C(=O)C(C)=C[C@@H]23)[C@@H]2C(C)(C)[C@]12OC(C)=O` [PMA, phorbol 12-myristate 13-acetate], in assay [1] (+/+ slices), the “Mean EPSP amplitude at 40 min. following HFS” value is recorded as 167±15%. Further, in assay [1] (−/− slices), the “Mean EPSP amplitude at 40 min. following HFS” value worked out at 158±11% and the “effect on LTP” value was “restores LTP”.
In the case of Phe-Met-Arg-Phe-NH2 [FMRFamide], the “modulation of the response of ASIC channels to acid” value in the assay with ASIC channels is “generating a sustained component of current”.
With `N=C(N)NC(=O)c1nc(Cl)c(N)nc1N` [amiloride], the “effect on H+-evoked currents” value with cortical neurons is given as “inhibition”.
With `O=C(O)c1cc(=O)c2ccccc2[nH]1` [KA, kynurenic acid], the “effect on baseline EPSPs” value in assay [2] is “abolished EPSPs”.
In the case of neuropeptide FF, the “modulation of the response of ASIC channels to acid” value at ASIC channels is on record as “generating a sustained component of current”.
